Measured values published in patent US20260035364A1, “BICYCLIC TETRAHYDROTHIAZEPINE DERIVATIVES” (Hoffmann-La Roche Inc., priority 2022, published 2026).

How the values were obtained:
MV-3 cells = experiment: T-cell - TCB - MV3 killing assay; assay type: cell-based; settings: Homo sapiens, 120 h, T-cells + MCSP-TCB on MV-3 RFP cells, 5 d; for Emax: 20 μM reference compound A1 = 100%, read-out: MSCP TCB killing MV-3 cells 5 d Emax; for EC50: read-out: MSCP TCB killing MV-3 cells 5 d EC50
Description: All culturing steps are executed at 5% CO2, 37° C. and 95% humidity.
MV-3 RFP cells are cultured in MV-3 medium (DMEM+10% FBS, 1× PenStrep and 0.5 μg/mL Puromycin) for at least 3 weeks. Cultured MV-3 cells at 80% confluency are washed once with PBS−− and trypsinized until detached. […] Cells are seeded with 100 μL/well into a 96-well plate (TTP, #92696), and placed for 40 minutes without moving at room temperature in order to achieve evenly distributed attachment of cells. Plates are then incubated until further use.
On the next day, expanded primary human T-cells are thawed and resuspended in T-cell medium to 4*10^6 cells/mL. For 3 hours, they are cultured in a 6-well plate with 6 mL per well at maximum. After culturing the T-cells, they are filtered through a cell strainer (Miltenyi Biotech, #130-041-407), counted again, and cell concentration is adjusted to 2*10^6 cells/mL.
MCSP-TCB or PBS are pre-diluted in T-cell medium (concentration depending on T-cell donor), 4 times more concentrated than the end-concentration. 60 μL/well of pre-dilutions are then distributed into a round bottom plate (Costar, #3799) according to plate layout. Compounds are added in a 9 pt dose response with the Tecan D300e Digital Dispenser, as well 4 times more concentrated than the end-concentration. DMSO concentration of all wells is adjusted to 0.8%, resulting in 0.2% as final concentration.
60 μL per well of T-cell suspension are added to the prepared round bottom plate and resuspended with a manual multichannel. 100 μL/well of the resuspended T-cell suspension including treatments are then transferred cautiously to the over-night cultured MV-3 cells according to plate layout. 100 μL T-cell medium only is added to the outer MV-3 wells only. Final compound DR is starting at 20 μM with a dilution factor of 3.333. Final TCB concentration is between […] and was determined for each T-cell donor individually by running TCB titrations. For each donor, a TCB concentration was chosen which corresponds to 10-20% of MV3 baseline cell killing in the absence of compound treatment. Positive control is the reference compound A1 which is added in a DR, as well as additional wells with only 20 μM. 20 μM of reference compound A1 represent the positive stimulator control, TCB only (DMSO wells) the neutral control.
After transfer of T-cells with treatment pre-dilutions, MV-3 cells are imaged by time-lapse microscopy using IncucyteZOOM™ (Essen BioScience, MI, USA). Imaging is performed every 3 hours for a total of 120 hours (1OX objective, phase and red image channels, acquisition time 400 ms, Green/Red 4614 optical module). RFP object count per well is analysed in the IncucyteZOOM™ Software (Version 2019B Rev2) with a mask that was previously created and optimized for MV-3 cells. Raw data is exported as object count/well and values are normalized as % TCL compared to wells with MV-3 only, representing 100% growth and therefore 0% TCL.
Calculated % TCL values are analysed in Genedata Screener using Roche Normalization PCT_POS_CTRL with MCSP-TCB only set as Neutral Control and 20 μM of the reference compound A1 set as Stimulator Control/100%.
Induced TCL by compounds without TCB treatment or toxicity (observed in the PBS condition) were be flagged.

DGKalpha = DGKalpha (Homo sapiens, UniProt P23743); experiment: In vitro DGK inhibition assay (ADP Glo) run by Reaction Biology Corp., DGKalpha; assay type: biochemical; design: purchased Reaction Biology Corp. (assay service); settings: 2 nM kinase, 500 uM DLG, 10-dose duplicate
Description: (§1) DGK α and ζ kinases use ATP to phosphorylate the substrate 1,2-dilauroyl-sn-glycerol (DLG). ATP is converted to ADP as a result of this enzymatic reaction.
(§2) After the kinase reaction, an ATP-depletion reagent is added to terminate the kinase reaction and deplete any remaining ATP, leaving only ADP. Second, a detection reagent is added to simultaneously convert ADP to ATP and allow the newly synthesized ATP to be converted to light using a coupled
(§3) luciferase/luciferin reaction.
(§4) DGK α and ζ kinase ADP Glo assays were ran by Reaction Biology Corp., 1 Great Valley Parkway, Suite 2, Malvern, 19355, PA, USA. Information provided by the service provider are the following: DGK α and ζ kinases were used at 2 nM final concentration. Reactions were carried out at 50 µM ATP. 500 uM of the substrate DLG (Dilauroyl-sn-glycerol) was used.

DGKzeta = DGKzeta (Homo sapiens, UniProt Q13574); experiment: In vitro DGK inhibition assay (ADP Glo) run by Reaction Biology Corp., DGKzeta; assay type: biochemical; design: purchased Reaction Biology Corp. (assay service); settings: 2 nM kinase, 500 uM DLG, 10-dose duplicate
Description: as §1, §2, §3, §4

Sequence of DGKalpha (P23743 whole entry, species assumed): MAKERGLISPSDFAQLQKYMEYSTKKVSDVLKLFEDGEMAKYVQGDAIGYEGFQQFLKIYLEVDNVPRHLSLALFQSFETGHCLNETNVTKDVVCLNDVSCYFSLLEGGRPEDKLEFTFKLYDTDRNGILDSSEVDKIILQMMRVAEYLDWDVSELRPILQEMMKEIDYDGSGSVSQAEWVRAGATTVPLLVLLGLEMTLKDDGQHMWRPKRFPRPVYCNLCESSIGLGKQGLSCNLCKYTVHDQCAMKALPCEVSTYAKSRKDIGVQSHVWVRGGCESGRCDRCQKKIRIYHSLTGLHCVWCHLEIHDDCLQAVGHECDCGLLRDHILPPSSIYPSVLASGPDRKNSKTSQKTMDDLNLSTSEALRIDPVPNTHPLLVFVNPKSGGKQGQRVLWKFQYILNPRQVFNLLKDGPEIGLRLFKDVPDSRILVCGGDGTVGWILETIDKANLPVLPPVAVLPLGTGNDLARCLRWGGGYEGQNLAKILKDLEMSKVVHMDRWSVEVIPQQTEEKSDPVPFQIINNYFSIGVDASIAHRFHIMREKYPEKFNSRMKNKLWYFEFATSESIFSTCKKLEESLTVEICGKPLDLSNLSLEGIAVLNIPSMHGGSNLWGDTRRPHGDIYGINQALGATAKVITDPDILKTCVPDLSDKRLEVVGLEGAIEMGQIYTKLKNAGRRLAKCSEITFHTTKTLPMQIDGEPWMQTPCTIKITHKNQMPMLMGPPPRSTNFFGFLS
Sequence of DGKzeta (Q13574 whole entry, species assumed): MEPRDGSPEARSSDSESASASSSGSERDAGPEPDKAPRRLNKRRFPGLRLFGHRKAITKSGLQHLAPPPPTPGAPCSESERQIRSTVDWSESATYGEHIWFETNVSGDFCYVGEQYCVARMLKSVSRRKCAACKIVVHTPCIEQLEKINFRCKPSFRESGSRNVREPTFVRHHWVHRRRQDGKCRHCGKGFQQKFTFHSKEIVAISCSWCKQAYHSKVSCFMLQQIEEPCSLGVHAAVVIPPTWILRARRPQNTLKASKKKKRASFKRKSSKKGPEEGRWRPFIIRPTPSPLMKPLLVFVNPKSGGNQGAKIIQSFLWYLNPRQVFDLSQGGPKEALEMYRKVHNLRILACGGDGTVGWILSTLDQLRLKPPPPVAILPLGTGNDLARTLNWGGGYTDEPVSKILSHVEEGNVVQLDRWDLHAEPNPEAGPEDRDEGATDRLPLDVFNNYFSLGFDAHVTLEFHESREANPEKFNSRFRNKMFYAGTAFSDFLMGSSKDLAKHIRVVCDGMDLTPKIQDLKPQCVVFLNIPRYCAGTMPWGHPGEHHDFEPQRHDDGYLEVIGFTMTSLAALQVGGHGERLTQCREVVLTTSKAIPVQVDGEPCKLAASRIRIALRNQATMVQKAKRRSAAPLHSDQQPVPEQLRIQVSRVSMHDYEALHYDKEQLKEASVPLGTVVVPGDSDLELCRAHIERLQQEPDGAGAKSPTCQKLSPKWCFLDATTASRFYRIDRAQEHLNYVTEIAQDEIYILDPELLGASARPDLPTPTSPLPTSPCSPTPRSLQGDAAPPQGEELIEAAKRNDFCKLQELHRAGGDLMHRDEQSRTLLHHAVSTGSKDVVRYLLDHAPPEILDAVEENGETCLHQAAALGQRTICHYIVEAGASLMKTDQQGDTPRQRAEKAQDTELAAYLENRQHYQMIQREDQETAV

IC50 (DGKalpha) | IC50 (DGKzeta) | SMILES | Emax (MV-3 cells) | EC50 (MV-3 cells)
 |  | CC(C)(c1nnc(-c2ccc3c(c2)N(Cc2ccc(Oc4ccccc4)cc2)C(=O)[C@@H](N)CS3(=O)=O)o1)S(C)(=O)=O [Example 5, (3R)-3-amino-7-[5-(1-methyl-1-methylsulfonyl-ethyl)-1,3,4-oxadiazol-2-yl]-1,1-dioxo-5-[(4-phenoxyphenyl)methyl]-2,3-dihydro-1λ6,5-benzothiazepin-4-one] | 154% | 982 nM
 |  | CC(C)(c1nnc(-c2ccc3c(c2)N(Cc2ccc(Oc4cccc(C(F)(F)F)c4)cc2)C(=O)[C@@H](N)CS3(=O)=O)o1)S(C)(=O)=O [Example 38] | 102% | 112 nM
67.7 nM | 142 nM | CC(C)(c1nnc(-c2ccc3c(c2)N(Cc2ccc(-c4ccc(C(F)(F)F)cc4)cc2)C(=O)[C@@H](N)CS3(=O)=O)o1)S(C)(=O)=O [Example 56, (3R)-3-amino-7-[5-(1-methyl-1-methylsulfonyl-ethyl)-1,3,4-oxadiazol-2-yl]-1,1-dioxo-5-[[4-[4-(trifluoromethyl)phenyl]phenyl]methyl]-2,3-dihydro-1λ6,5-benzothiazepin-4-one] | 100% | 105 nM
7.8 nM | 5.5 nM | CC(C)(c1nc(-c2cc3c(cc2F)S(=O)(=O)C[C@H](N)C(=O)N3Cc2ccc(Oc3ccccc3)cc2)no1)S(C)(=O)=O [Example 30, (3R)-3-amino-8-fluoro-7-[5-(1-methyl-1-methylsulfonyl-ethyl)-1,2,4-oxadiazol-3-yl]-1,1-dioxo-5-[(4-phenoxyphenyl)methyl]-2,3-dihydro-1λ6,5-benzothiazepin-4-one] | 100% | 41 nM
 |  | CC(C)(c1nc(-c2cc3c(cc2F)S(=O)(=O)C[C@H](N)C(=O)N3Cc2ccc(-c3noc(C(F)(F)F)n3)cc2)no1)S(C)(=O)=O [Example 46, (3R)-3-amino-8-fluoro-7-[5-(1-methyl-1-methylsulfonyl-ethyl)-1,2,4-oxadiazol-3-yl]-1,1-dioxo-5-[[4-[5-(trifluoromethyl)-1,2,4-oxadiazol-3-yl]phenyl]methyl]-2,3-dihydro-1λ6,5-benzothiazepin-4-one] | 65% | 25 nM
 |  | CC(C)(c1nnc(-c2ccc3c(c2)N(Cc2ccc(-c4ccc(C(F)(F)F)cc4)nc2)C(=O)[C@@H](N)CS3(=O)=O)o1)S(C)(=O)=O [Example 57, (3R)-3-amino-7-[5-(1-methyl-1-methylsulfonyl-ethyl)-1,3,4-oxadiazol-2-yl]-1,1-dioxo-5-[[6-[4-(trifluoromethyl)phenyl]-3-pyridyl]methyl]-2,3-dihydro-1λ6,5-benzothiazepin-4-one] | 104% | 1850 nM
 |  | CC(C)(c1nc(-c2cc3c(cc2F)S(=O)(=O)C[C@H](N)C(=O)N3Cc2ccc(-c3noc(C4CC4)n3)cc2)no1)S(C)(=O)=O [Example 45, (3R)-3-amino-5-[[4-(5-cyclopropyl-1,2,4-oxadiazol-3-yl)phenyl]methyl]-8-fluoro-7-[5-(1-methyl-1-methylsulfonyl-ethyl)-1,2,4-oxadiazol-3-yl]-1,1-dioxo-2,3-dihydro-1λ6,5-benzothiazepin-4-one] | 67% | 35 nM
 |  | CC(C)(c1nnc(-c2ccc3c(c2)N(Cc2ccc(Oc4cccc(Cl)c4)cc2)C(=O)[C@@H](N)CS3(=O)=O)o1)S(C)(=O)=O [Example 34, (3R)-3-amino-5-[[4-(3-chlorophenoxy)phenyl]methyl]-7-[5-(1-methyl-1-methylsulfonyl-ethyl)-1,3,4-oxadiazol-2-yl]-1,1-dioxo-2,3-dihydro-1λ6,5-benzothiazepin-4-one] | 95% | 392 nM
7.1 nM | 6.6 nM | CC(C)(c1nnc(-c2cc3c(cc2F)S(=O)(=O)C[C@H](N)C(=O)N3Cc2ccc(-c3ccc(C(F)(F)F)cc3)cc2)o1)S(C)(=O)=O [Example 35, (3R)-3-amino-8-fluoro-7-[5-(1-methyl-1-methylsulfonyl-ethyl)-1,3,4-oxadiazol-2-yl]-1,1-dioxo-5-[[4-[4-(trifluoromethyl)phenyl]phenyl]methyl]-2,3-dihydro-1λ6,5-benzothiazepin-4-one] |  | 
 |  | CC(C)(c1nc(-c2cc3c(cc2F)S(=O)(=O)C[C@H](N)C(=O)N3Cc2ccc(OC(F)(F)F)cc2)no1)S(C)(=O)=O [Example 44, (3R)-3-amino-8-fluoro-7-[5-(1-methyl-1-methylsulfonyl-ethyl)-1,2,4-oxadiazol-3-yl]-1,1-dioxo-5-[[4-(trifluoromethoxy)phenyl]methyl]-2,3-dihydro-1λ6,5-benzothiazepin-4-one] | 131% | 65 nM
 |  | CC(C)(c1nnc(-c2ccc3c(c2)N(Cc2ccc(Oc4cccc(F)c4)cc2)C(=O)[C@@H](N)CS3(=O)=O)o1)S(C)(=O)=O [Example 33, (3R)-3-amino-5-[[4-(3-fluorophenoxy)phenyl]methyl]-7-[5-(1-methyl-1-methylsulfonyl-ethyl)-1,3,4-oxadiazol-2-yl]-1,1-dioxo-2,3-dihydro-1λ6,5-benzothiazepin-4-one] | 117% | 465 nM
